In patent publication US12590105B2, “KRas G12C inhibitors” (Eli Lilly and Company, priority 2020, dated 2026):

Assays:
KRas G12C = KRas G12C (Homo sapiens, UniProt P01116, G12C); experiment: KRas G12C Probe Occupancy TR-FRET Assay; details: His-tagged KRas G12C; inhibitor incubated 5 or 60 minutes (which one applies is not stated); read-out: relative IC50, competition with KRas Probe for binding to and covalently modifying KRas G12C
Source text: The purpose of this assay is to measure the ability of an inhibitor to compete with a probe for binding to and covalently modifying KRas G12C at codon 12. The signal is generated by the time-resolved transfer of fluorescence between europium on an antibody bound to KRas G12C Europium-labeled Anti-Histidine Tag Antibody LanthaScreen (the Eu Anti-His antibody) and fluorescent Tracer 647 (Alexa Fluor™) bound to KRas G12C through streptavidin and a biotinylated inhibitor (the “KRas Probe”, see Preparation 59).
Inhibitors are tested in dose response format from 10 mM stocks in 100% DMSO. The Labycyte Echo® 555 is used to dilute and transfer 100 nL per well containing a 10 point, 2.8-fold serial dilution to an assay plate. Two copies of the assay plate are prepared to measure the potency after 5 and 60 minutes incubation of the inhibitor with KRas G12C. His-tagged KRas G12C (20 nM) is added to the plates in assay buffer (20 mM Tris-HCl, pH 7.5, 0.01% TX-100, and 1 mM DTT). After 5 or 60 minutes incubation, 1 μM KRas Probe is added and allowed to covalently modify free KRas G12C for 1 hour. […] After 30 minutes, the fluorescent signal is read on an Envision™ Plate Reader (excitation at 340 nm, tracer emission (em) at […], and antibody emission at 615 nm). […]

[1] = test system: phosphorylation of p-ERK1/2 in H358 cells; experiment: H358 Cellular Phospho-ERK AlphaLISA; format: cell-based; details: NCI-H358; H358 human lung cancer cells, 2 hours incubation; read-out: relative IC50, inhibition of phosphorylation of p-ERK1/2
Source text: The purpose of this assay is to measure the ability of test compounds to inhibit the phosphorylation of p-ERK1/2, a downstream effector of KRas in human lung cancer cells H358 (ATCC CRL-5807). Briefly, the AlphaLISA® SureFire® Ultra™ p-ERK 1/2 (Thr202/Tyr204) assay is a sandwich immunoassay for quantitative detection of phospho-ERK 1/2 (phosphorylated on Thr202/Tyr204 in ERK1, or Thr185/Tyr187 in ERK2) in cellular lysates using Alpha Technology (Perkin Elmer Cat #ALSU-PERK-A50K).
H358 cells are plated at 40K cells per well in 100 μL media (RPMI 1640, GIBCO Cat #22400-071) containing 10% FBS (GIBCO Cat #: 10082-147) in a 96 well plate (Costar #3596) and are incubated overnight in humid trays at 37° C., 5% CO2. […] The assay plate is then read on an EnVision™ Plate Reader (Perkin Elmer) using a luminescence program. […]

[2] = target: T1, constitutive RAS GTPase activity in H358 cells (Homo sapiens, UniProt P01116, G12C); experiment: H358 Cellular Active RAS GTPase ELISA; format: cell-based; details: H358 human lung cancer cells, serum free media, 2 hours incubation; read-out: relative IC50, inhibition of constitutive RAS GTPase activity
T1 construct: host or cells: H358 human lung cancer cells
Source text: The purpose of this assay is to measure the ability of test compounds to inhibit constitutive RAS GTPase activity in human lung cancer cells H358 (ATCC CRL-5807). The RAS GTPase ELISA kit (Active Motif Cat #52097) contains a 96-well plate pre-coated with glutathione in order to capture a kit-supplied GST-Raf-RBD protein. Activated RAS (GTP-bound) in cell extracts specifically bind to the Raf-RBD. Bound RAS is detected with a primary antibody that recognizes human KRas. A secondary antibody conjugated with HRP recognizes the primary antibody and a development solution provides a chemiluminescent readout.
H358 cells are plated at 80,000 cells/well in 90 μL serum free media (RPMI 1640, GIBCO) and incubated overnight at 37° C./5% CO2. The next morning, 10 μL of serially-diluted (3-fold) test compounds (500 μM top concentration) and 10 μL of controls (Maximum signal wells: 5% DMSO and Minimum signal wells: 500 μM 1-[4-[6-chloro-8-fluoro-7-(3-hydroxy-1-naphthyl)quinazolin-4-yl]piperazin-1-yl]prop-2-en-1-one, WO2015054572 as an inhibitor) are added to the cell plate and incubated for 2 hours at 37° C./5% CO2. Complete Lysis/Binding Buffer is prepared containing Protease Inhibitor cocktail and GST-Raf-RBD and stored on ice. […] The assay plate is then read on an EnVision™ Plate Reader (Perkin Elmer) using a luminescence program. […]

T1 sequence (P01116 1-188 isoform P01116-2 G12C): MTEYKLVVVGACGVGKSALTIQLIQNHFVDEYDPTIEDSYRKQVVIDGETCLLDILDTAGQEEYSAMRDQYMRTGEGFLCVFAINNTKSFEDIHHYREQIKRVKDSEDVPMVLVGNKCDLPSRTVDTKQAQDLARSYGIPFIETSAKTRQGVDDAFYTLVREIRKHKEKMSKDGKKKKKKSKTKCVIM
KRas G12C, sequence (P01116 1-188 isoform P01116-2 G12C): as above

Structure (SMILES): C=CC(=O)N1CCN2C(=O)c3cc(Cl)c(-c4ccc(F)c5sccc45)c(Cl)c3OCC[C@H]2C1 (single isomer, unassigned) [Example 2]
- IC50 (KRas G12C): 34 nM
- IC50 [1]: 89 nM
- IC50 [2]: 326 nM
